Experimental data taken from PMC12862769 (ACS infectious diseases, 2025).
≈ marks a conversion by molar mass, not a printed value. Read-outs that look alike come from different tables or passages of the source.

Tests used:
[1] = system: Bacillus subtilis ATCC11774; assay: MIC assay; type: cell-based; settings: encodes both MpsAB and CAs
E. faecium NR-28978 = settings: cited from earlier work
E. faecium NR-31916 = settings: cited from earlier work
E. faecium HM-965 = assay: MIC assay; type: cell-based
[2] = system: all tested Enterococcus strains; assay: MIC assay, all tested Enterococcus strains; type: cell-based
E. faecium NR-31903 = settings: cited from earlier work
E. faecium NR-31914 = settings: cited from earlier work
[3] = system: E. faecalis and E. faecium strains; assay: MIC assay, panel of 25 E. faecalis and E. faecium strains; type: cell-based; settings: ambient air
E. gallinarum ATCC 49373 = assay: MIC assay; type: cell-based
E. faecium NR-32052 = settings: cited from earlier work
E. faecalis NR-31972 = settings: cited from earlier work
E. faecalis HM-201 = assay: MIC assay; type: cell-based
E. faecalis NR-31971 = settings: cited from earlier work
E. hirae ATCC 10541 = assay: MIC assay; type: cell-based
E. faecalis HM-334 = settings: cited from earlier work
E. faecium NR-31954 = assay: MIC assay; type: cell-based
E. faecium NR-31909 [4] = assay: MIC assay; type: cell-based
E. faecium NR-31937 = assay: MIC assay; type: cell-based
E. faecium NR-31933 = assay: MIC assay; type: cell-based
E. faecium α-CA = assay: in vitro inhibition of bacterial α-CA; type: biochemical
[5] = system: E. casseliflavus ATCC 700327; assay: MIC assay; type: cell-based
E. faecium HM-970 = assay: MIC assay; type: cell-based
[6] = system: Listeria Monocytogenes ATCC 19111; assay: MIC assay; type: cell-based; settings: encodes only α-CA, no MpsAB homologs
E. avium ATCC 14025 = assay: MIC assay; type: cell-based
E. raffinosus ATCC 49464 = assay: MIC assay; type: cell-based
E. durans ATCC 11576 = assay: MIC assay; type: cell-based
[7] = system: E. saccharolyticus ATCC 43076; assay: MIC assay; type: cell-based
E. faecium NR-32065 = settings: cited from earlier work
E. faecium HM-952 = assay: MIC assay; type: cell-based
E. faecium ATCC 700221 = assay: MIC assay; type: cell-based
E. faecium NR-32053 = assay: MIC assay; type: cell-based
E. faecium NR-31909 [8] = assay: E. faecium septicemic peritonitis mouse model; type: in vivo, BALB/c mice
E. faecalis NR-31970 = assay: MIC assay; type: cell-based
[9] = system: α-Carbonic anhydrase (Q3XYE8); settings: lysates pre-incubated with 100 μM free inhibitor, compared to Biotin-AZM; α-CA
E. faecium HM-968 = settings: cited from earlier work
E. faecalis HM-934 = assay: MIC assay; type: cell-based
[10] = system: Staphylococcus epidermidis NRS101; assay: MIC assay; type: cell-based; settings: no CAs, expresses MpsAB homologs
E. faecalis HM-335 = settings: cited from earlier work
E. faecium NR-31912 = assay: MIC assay; type: cell-based
[11] = system: Staphylococcus aureus USA300; assay: MIC assay; type: cell-based; settings: no CAs, expresses MpsAB homologs
E. faecium NR-32094 = assay: MIC assay; type: cell-based

For `CC(=O)Nc1nnc(S(N)(=O)=O)s1` [AZM, acetazolamide], the MIC ([1]; 5% CO2 atmosphere at 37° C) is given as greater than 500 µM, the MIC ([1]; ambient air at 37° C) is given as greater than 500 µM and the MIC (E. faecium NR-28978; 5% CO2 atmosphere at 37° C) is given as greater than 288 µM. For the same compound, the MIC (E. faecium NR-28978; ambient air at 37° C) was 9.01 µM (≈ 2 µg/mL), the MIC (E. faecium NR-31916; 5% CO2 atmosphere at 37° C) was greater than 288 µM and the MIC (E. faecium NR-31916; ambient air at 37° C) was 9.01 µM (≈ 2 µg/mL). The MIC (E. faecium HM-965; 5% CO2 atmosphere at 37° C) was greater than 288 µM, the MIC (E. faecium HM-965; ambient air at 37° C) was 4.50 µM (≈ 1 µg/mL) and the “MICs in the presence of CO2” value ([2]; all Enterococcus species, 5% CO2) was greater than 288 µM. The “All Enterococci spp. MIC50” value ([2]; inhibited 50% of all tested Enterococcus strains, ambient air) was 9.01 µM, the “All Enterococci spp. MIC90” value ([2]; inhibited 90% of all tested Enterococcus strains, ambient air) was 36.0 µM and the MIC (E. faecium NR-31903; 5% CO2 atmosphere at 37° C) was greater than 288 µM. For the same compound, the MIC (E. faecium NR-31903; ambient air at 37° C) was 9.01 µM (≈ 2 µg/mL), the MIC (E. faecium NR-31914; 5% CO2 atmosphere at 37° C) was greater than 288 µM and the MIC (E. faecium NR-31914; ambient air at 37° C) was 9.01 µM (≈ 2 µg/mL). For the same compound, the “Ef MIC50” value ([3]; inhibited 50% of the tested E. faecalis and E. faecium strains) was 9.01 µM, the “Ef MIC90” value ([3]; inhibited 90% of the tested E. faecalis and E. faecium strains) was 18 µM and the MIC (E. gallinarum ATCC 49373; 5% CO2 atmosphere at 37° C) was greater than 288 µM. The MIC (E. gallinarum ATCC 49373; ambient air at 37° C) was 36.0 µM (≈ 8 µg/mL), the MIC (E. faecium NR-32052; 5% CO2 atmosphere at 37° C) was greater than 288 µM and the MIC (E. faecium NR-32052; ambient air at 37° C) was 9.01 µM (≈ 2 µg/mL). The MIC (E. faecalis NR-31972; 5% CO2 atmosphere at 37° C) was greater than 288 µM, the MIC (E. faecalis NR-31972; ambient air at 37° C) was 9.01 µM (≈ 2 µg/mL) and the MIC (E. faecalis HM-201; 5% CO2 atmosphere at 37° C) was greater than 288 µM. For the same compound, the MIC (E. faecalis HM-201; ambient air at 37° C) was 18.0 µM (≈ 4 µg/mL), the MIC (E. faecalis NR-31971; 5% CO2 atmosphere at 37° C) was greater than 288 µM and the MIC (E. faecalis NR-31971; ambient air at 37° C) was 9.01 µM (≈ 2 µg/mL). For the same compound, the MIC (E. hirae ATCC 10541; 5% CO2 atmosphere at 37° C) was greater than 288 µM, the MIC (E. hirae ATCC 10541; ambient air at 37° C) was 36.0 µM (≈ 8 µg/mL) and the MIC (E. faecalis HM-334; 5% CO2 atmosphere at 37° C) was greater than 288 µM. The MIC (E. faecalis HM-334; ambient air at 37° C) was 9.01 µM (≈ 2 µg/mL), the MIC (E. faecium NR-31954; 5% CO2 atmosphere at 37° C) was greater than 288 µM and the MIC (E. faecium NR-31954; ambient air at 37° C) was 36.0 µM (≈ 8 µg/mL). For the same compound, the MIC (E. faecium NR-31909 [4]; 5% CO2 atmosphere at 37° C) was greater than 288 µM, the MIC (E. faecium NR-31909 [4]; ambient air at 37° C) was 9.01 µM (≈ 2 µg/mL) and the MIC (E. faecium NR-31937; 5% CO2 atmosphere at 37° C) was greater than 288 µM. It also gave an MIC (E. faecium NR-31937; ambient air at 37° C) of 9.01 µM (≈ 2 µg/mL), an MIC (E. faecium NR-31933; 5% CO2 atmosphere at 37° C) greater than 288 µM and an MIC (E. faecium NR-31933; ambient air at 37° C) of 9.01 µM (≈ 2 µg/mL). The “potency against α-CA over γ-CA based on Ki” value (E. faecium α-CA) was greater than 5 fold, the MIC ([5]; 5% CO2 atmosphere at 37° C) was greater than 288 µM and the MIC ([5]; ambient air at 37° C) was 72.0 µM (≈ 16 µg/mL). It also gave an MIC (E. faecium HM-970; 5% CO2 atmosphere at 37° C) greater than 288 µM, an MIC (E. faecium HM-970; ambient air at 37° C) of 9.01 µM (≈ 2 µg/mL) and an MIC ([6]; 5% CO2 atmosphere at 37° C) greater than 500 µM. For the same compound, the MIC ([6]; ambient air at 37° C) was 72 µM (≈ 16 µg/mL), the MIC (E. avium ATCC 14025; 5% CO2 atmosphere at 37° C) was greater than 288 µM and the MIC (E. avium ATCC 14025; ambient air at 37° C) was 72.0 µM (≈ 16 µg/mL). The MIC (E. raffinosus ATCC 49464; 5% CO2 atmosphere at 37° C) was greater than 288 µM, the MIC (E. raffinosus ATCC 49464; ambient air at 37° C) was 36.0 µM (≈ 8 µg/mL) and the MIC (E. durans ATCC 11576; 5% CO2 atmosphere at 37° C) was greater than 288 µM. For the same compound, the MIC (E. durans ATCC 11576; ambient air at 37° C) was 2.25 µM (≈ 0.5 µg/mL), the MIC ([7]; 5% CO2 atmosphere at 37° C) was greater than 288 µM and the MIC ([7]; ambient air at 37° C) was 4.50 µM (≈ 1 µg/mL). The MIC (E. faecium NR-32065; 5% CO2 atmosphere at 37° C) was greater than 288 µM, the MIC (E. faecium NR-32065; ambient air at 37° C) was 4.50 µM (≈ 1 µg/mL) and the MIC (E. faecium HM-952; 5% CO2 atmosphere at 37° C) was greater than 288 µM. For the same compound, the MIC (E. faecium HM-952; ambient air at 37° C) was 9.01 µM (≈ 2 µg/mL), the MIC (E. faecium ATCC 700221; 5% CO2 atmosphere at 37° C) was greater than 288 µM and the MIC (E. faecium ATCC 700221; ambient air at 37° C) was 9.01 µM (≈ 2 µg/mL). For the same compound, the MIC (E. faecium NR-32053; 5% CO2 atmosphere at 37° C) was greater than 288 µM, the MIC (E. faecium NR-32053; ambient air at 37° C) was 4.50 µM (≈ 1 µg/mL) and the “survival (mice rescued)” value (E. faecium NR-31909 [8]; 20 mg/kg PO once-daily for three days, n = 6/group) was 66.7%. The “reduction of VRE bioburden compared to vehicle” value (E. faecium NR-31909 [8]; kidney, liver and spleen, each tissue, 20 mg/kg PO QD three days) was “at least 2 Log10 CFU/mL”, the “reduction of VRE bioburden” value (E. faecium NR-31909 [8]; kidney, liver and spleen, three-day treatment) was greater than 99% and the MIC (E. faecalis NR-31970; 5% CO2 atmosphere at 37° C) was greater than 288 µM. The MIC (E. faecalis NR-31970; ambient air at 37° C) was 18.0 µM (≈ 4 µg/mL), the “Log2 (FC)” value [9] was −7.88 and the MIC (E. faecium HM-968; 5% CO2 atmosphere at 37° C) was greater than 288 µM. The MIC (E. faecium HM-968; ambient air at 37° C) was 9.01 µM (≈ 2 µg/mL), the MIC (E. faecalis HM-934; 5% CO2 atmosphere at 37° C) was greater than 288 µM and the MIC (E. faecalis HM-934; ambient air at 37° C) was 9.01 µM (≈ 2 µg/mL). For the same compound, the MIC ([10]; 5% CO2 atmosphere at 37° C) was greater than 500 µM, the MIC ([10]; ambient air at 37° C) was greater than 500 µM and the MIC (E. faecalis HM-335; 5% CO2 atmosphere at 37° C) was greater than 288 µM. The MIC (E. faecalis HM-335; ambient air at 37° C) was 9.01 µM (≈ 2 µg/mL), the MIC (E. faecium NR-31912; 5% CO2 atmosphere at 37° C) was greater than 288 µM and the MIC (E. faecium NR-31912; ambient air at 37° C) was 9.01 µM (≈ 2 µg/mL). The MIC ([11]; 5% CO2 atmosphere at 37° C) was greater than 500 µM, the MIC ([11]; ambient air at 37° C) was greater than 500 µM and the MIC (E. faecium NR-32094; 5% CO2 atmosphere at 37° C) was greater than 288 µM. The MIC (E. faecium NR-32094; ambient air at 37° C) was 9.01 µM (≈ 2 µg/mL).
